Assays:
Format in all cases: biochemical
human HPK1 (MAP4K1) = biological target: T1, human HPK1 (MAP4K1) (Homo sapiens, UniProt Q92918); test: HPK1 inhibition assay (indirect ELISA); settings: GST-HPK1 0.6 nM, 12 μM ATP; read-out: IC50 Range HPK1
T1 construct: human HPK1 (aa 1-346); purchased Invitrogen PV6355
T1 sequence (Q92918 1-346): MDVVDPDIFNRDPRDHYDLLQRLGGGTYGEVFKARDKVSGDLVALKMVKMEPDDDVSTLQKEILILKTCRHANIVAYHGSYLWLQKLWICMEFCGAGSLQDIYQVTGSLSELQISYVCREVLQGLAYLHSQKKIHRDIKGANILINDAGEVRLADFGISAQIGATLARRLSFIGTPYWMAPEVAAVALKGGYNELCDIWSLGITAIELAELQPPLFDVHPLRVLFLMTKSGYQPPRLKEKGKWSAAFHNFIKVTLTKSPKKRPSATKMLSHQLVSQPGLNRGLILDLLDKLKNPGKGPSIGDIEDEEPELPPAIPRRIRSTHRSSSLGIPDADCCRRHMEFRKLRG
Experimental: Active HPK1 (MAP4K1) was purchased as an N-terminal GST fusion of human HPK1 (aa 1-346) from Invitrogen (cat #PV6355). HPK1 activity was measured using an indirect ELISA detection system. GST-HPK1 (0.6 nM) was incubated in the presence of 12 μM ATP (Sigma cat #A7699), 5 mM MOPS (pH 7.2), 2.5 mM β-glycerol-phosphate, 5 mM MgCl2, 0.4 mM EDTA, 1 mM EGTA, 0.05 mM DTT, in a 96 well microtitre plate pre-coated with 0.5 μg/well bovine myelin basic protein (MBP) (Millipore, cat #13-110). The reaction was allowed to proceed for 30 min, followed by 5 washes of the plate with Wash Buffer (phosphate buffered saline supplemented with 0.2% Tween 20), and incubation for 30 min with a 1:3000 dilution of anti-phospho-threonine rabbit polyclonal antibody (Cell Signaling cat #9381). The plate was washed 5 times with wash buffer, incubated for 30 min in the presence of goat anti-rabbit horse radish peroxidase conjugate (BioRad cat #1721019, 1:3000 concentration), washed an additional 5 times with wash buffer, and incubated in the presence of TMB substrate (Sigma cat #T0440). The colorimetric reaction was allowed to continue for 5 min, followed by addition of stop solution (0.5 N H2SO4), and quantified by detection at 450 nm with a monochromatic plate reader (Molecular Devices M5).
Compound inhibition was determined at either a fixed concentration (10 μM) or at a variable inhibitor concentration (typically 50 μM to 0.1 μM in a 10 point dose response titration). Compounds were pre-incubated in the presence of enzyme for 15 min prior to addition of ATP and the activity remaining quantified using the above described activity assay. The % inhibition of a compound was determined using the following formula; % inhibition=100×(1−(experimental value−background value)/(high activity control−background value)). The IC50 value was determined using a non-linear 4 point logistic curve fit (XLfit4, IDBS) with the formula; (A+(B/(1+((x/C)^D)))), where A=background value, B=range, C=inflection point, D=curve fit parameter.

LCK = biological target: T2, LCK (Homo sapiens, UniProt P06239); test: LCK inhibition, FRET based Z'-LYTE Kinase Assay; settings: 25 nM LCK, 180 μM ATP; read-out: IC50 Range Lck
T2 construct: purchased Invitrogen P3043
T2 sequence (P06239 whole entry, species assumed): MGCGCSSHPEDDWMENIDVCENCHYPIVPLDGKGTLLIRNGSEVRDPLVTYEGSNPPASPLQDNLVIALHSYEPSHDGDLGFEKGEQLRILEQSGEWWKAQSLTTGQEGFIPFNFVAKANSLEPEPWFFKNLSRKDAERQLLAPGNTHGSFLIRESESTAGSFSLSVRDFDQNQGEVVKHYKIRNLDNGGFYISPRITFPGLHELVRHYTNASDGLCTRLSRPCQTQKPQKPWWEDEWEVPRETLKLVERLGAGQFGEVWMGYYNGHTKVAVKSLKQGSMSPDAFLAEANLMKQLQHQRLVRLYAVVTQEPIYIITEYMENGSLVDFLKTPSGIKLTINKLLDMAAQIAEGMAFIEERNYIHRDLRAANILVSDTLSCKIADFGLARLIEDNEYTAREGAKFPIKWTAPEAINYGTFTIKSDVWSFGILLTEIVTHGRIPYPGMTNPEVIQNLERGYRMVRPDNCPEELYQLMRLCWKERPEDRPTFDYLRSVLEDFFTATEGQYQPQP
Experimental: (§1) FLT3 and LCK compound inhibition were determined using FRET based Z′-LYTE Kinase Assay Kit with Tyrosine 2 peptide as the substrate (Invitrogen cat #PV3191). […] The % inhibition values were determined according to the manufacturer's directions and IC50 values were obtained using a non-linear 4 point logistic curve fit (XLfit4, IDBS).

FLT3 = biological target: T3, FLT3 (Homo sapiens, UniProt P36888); test: FLT3 inhibition, FRET based Z'-LYTE Kinase Assay; settings: 1 nM FLT3, 940 μM ATP; read-out: IC50 Range Flt3
T3 construct: purchased Invitrogen PV3182
T3 sequence (P36888 27-993): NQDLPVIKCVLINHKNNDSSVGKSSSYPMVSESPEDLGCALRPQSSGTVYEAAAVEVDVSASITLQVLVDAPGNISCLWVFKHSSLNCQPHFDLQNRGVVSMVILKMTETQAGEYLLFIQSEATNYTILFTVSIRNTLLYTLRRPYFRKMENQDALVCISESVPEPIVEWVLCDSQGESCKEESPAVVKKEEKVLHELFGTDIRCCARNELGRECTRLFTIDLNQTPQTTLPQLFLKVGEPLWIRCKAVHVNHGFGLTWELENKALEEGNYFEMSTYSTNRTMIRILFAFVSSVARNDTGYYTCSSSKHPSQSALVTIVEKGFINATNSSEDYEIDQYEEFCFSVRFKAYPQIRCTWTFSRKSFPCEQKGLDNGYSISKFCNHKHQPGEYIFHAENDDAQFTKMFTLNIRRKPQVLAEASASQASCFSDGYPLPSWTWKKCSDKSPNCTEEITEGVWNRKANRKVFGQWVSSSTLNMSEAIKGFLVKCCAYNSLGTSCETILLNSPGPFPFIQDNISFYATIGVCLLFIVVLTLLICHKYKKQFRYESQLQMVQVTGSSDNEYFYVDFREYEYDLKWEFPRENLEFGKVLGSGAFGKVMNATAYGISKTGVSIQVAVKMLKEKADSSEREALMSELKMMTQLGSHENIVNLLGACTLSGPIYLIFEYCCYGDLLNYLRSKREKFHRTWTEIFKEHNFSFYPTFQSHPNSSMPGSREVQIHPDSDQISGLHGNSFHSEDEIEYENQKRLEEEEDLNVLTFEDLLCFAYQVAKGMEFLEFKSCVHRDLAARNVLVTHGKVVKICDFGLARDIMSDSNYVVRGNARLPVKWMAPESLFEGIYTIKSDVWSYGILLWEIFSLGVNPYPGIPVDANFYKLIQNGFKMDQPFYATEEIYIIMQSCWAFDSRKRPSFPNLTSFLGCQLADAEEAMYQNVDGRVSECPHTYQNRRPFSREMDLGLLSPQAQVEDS
Experimental: as §1

Compound | IC50 (human HPK1 (MAP4K1)) | IC50 (LCK) | IC50 (FLT3)
C[C@@H]1CN(c2ccc3nc(-c4c(N)c5sccc5[nH]c4=O)[nH]c3c2)C[C@H](C)N1C [Example A33, 7-amino-6-(6-(3r,5s)-rel-3,4,5-trimethylpiperazin-1-yl)-1H-benzo[d]imidazol-2-yl)thieno[3,2-b]pyridin-5(4H)-one] | ≤ 50 nM | 50 to 500 nM | ≤ 50 nM
CN1CCN(c2ccc3nc(-c4c(NC5CCOCC5)c5sccc5[nH]c4=O)[nH]c3c2)CC1 [Example A35, 6-(6-(4-methylpiperazin-1-yl)-1H-benzo[d]imidazol-2-yl)-7-((tetrahydro-2H-pyran-4-yl)amino)thieno[3,2-b]pyridin-5(4H)-one] | ≤ 50 nM | ≤ 50 nM | ≤ 50 nM
CN1CCN(c2ccc3nc(-c4c(NCC5CCOCC5)c5sccc5[nH]c4=O)[nH]c3c2)CC1 [Example A38, 6-(6-(4-methylpiperazin-1-yl)-1H-benzo[d]imidazol-2-yl)-7-(((tetrahydro-2H-pyran-4-yl)methyl)amino)thieno[3,2-b]pyridin-5(4H)-one] | ≤ 50 nM | ≤ 50 nM | ≤ 50 nM
CN1CCN(c2ccc3nc(-c4c(NC5CCNCC5)c5sccc5[nH]c4=O)[nH]c3c2)CC1 [Example A39, 6-(6-(4-methylpiperazin-1-yl)-1H-benzo[d]imidazol-2-yl)-7-(piperidin-4-ylamino)thieno[3,2-b]pyridin-5(4H)-one] | ≤ 50 nM | ≤ 50 nM | ≤ 50 nM
CN1CCN(c2ccc3nc(-c4c(N[C@H]5CC[C@@H](O)CC5)c5sccc5[nH]c4=O)[nH]c3c2)CC1 [Example A40, 7-(((1S,4S)-4-hydroxycyclohexyl)amino)-6-(6-(4-methylpiperazin-1-yl)-1H-benzo[d]imidazol-2-yl)thieno-[3,2-b]pyridin-5(4H)-one] | ≤ 50 nM | ≤ 50 nM | ≤ 50 nM
CN1CCN(c2ccc3nc(-c4c(N[C@H]5CCCC[C@@H]5O)c5sccc5[nH]c4=O)[nH]c3c2)CC1 [Example A41, 7-(((1S,2S)-2-hydroxycyclohexyl)amino)-6-(6-(4-methylpiperazin-1-yl)-1H-benzo[d]imidazol-2-yl)thieno[3,2-b]pyridin-5(4H)-one] | ≤ 50 nM | ≤ 50 nM | ≤ 50 nM
CN1CCN(c2ccc3nc(-c4c(N[C@H]5CCC[C@@H]5O)c5sccc5[nH]c4=O)[nH]c3c2)CC1 [Example A42, 7-(((1S,2S)-2-hydroxycyclopentyl)amino)-6-(6-(4-methylpiperazin-1-yl)-1H-benzo[d]imidazol-2-yl)thieno[3,2-b]pyridin-5(4H)-one] | ≤ 50 nM | ≤ 50 nM | ≤ 50 nM
CN1CCN(c2ccc3nc(-c4c(N[C@H]5CCCC[C@H]5O)c5sccc5[nH]c4=O)[nH]c3c2)CC1 [Example A44, 7-(((1S,2R)-2-hydroxycyclohexyl)amino)-6-(6-(4-methylpiperazin-1-yl)-1H-benzo[d]imidazol-2-yl)thieno[3,2-b]pyridin-5(4H)-one] | ≤ 50 nM | ≤ 50 nM | ≤ 50 nM
CN1CCC(Nc2c(-c3nc4ccc(N5CCOCC5)cc4[nH]3)c(=O)[nH]c3ccsc23)CC1 [Example A45, 7((1-methylpiperidin-4-yl)amino)-6-(6-morpholino-1H-benzo[d]imidazol-2-yl)thieno[3,2-b]pyridin-5(4H)-one] | ≤ 50 nM | ≤ 50 nM | ≤ 50 nM
CN1CCN(c2ccc3nc(-c4c(N[C@@H]5CCCC[C@@H]5O)c5sccc5[nH]c4=O)[nH]c3c2)CC1 [Example A46, 7-(((1R,2S)-2-hydroxycyclohexyl)amino)-6-(6-(4-methylpiperazin-1-yl)-1H-benzo[d]imidazol-2-yl)thieno[3,2-b]pyridin-5(4H)-one] | ≤ 50 nM | 50 to 500 nM | ≤ 50 nM
C[C@@H]1CN(c2ccc3nc(-c4c(NC5CCOCC5)c5sccc5[nH]c4=O)[nH]c3c2)C[C@H](C)N1C [Example A48, 7-((tetrahydro-2H-pyran-4-yl)amino)-6-(6-(3r,5s)-rel-3,4,5-trimethylpiperazin-1-yl)-1H-benzo[d]imidazol-2-yl)thieno[3,2-b]pyridin-5(4H)-one] | ≤ 50 nM | ≤ 50 nM | ≤ 50 nM
CN1CCN(c2ccc3nc(-c4c(NCc5cccnc5)c5sccc5[nH]c4=O)[nH]c3c2)CC1 [Example A52, 6-(6-(4-methylpiperazin-1-yl)-1H-benzo[d]imidazol-2-yl)-7-((pyridin-3-ylmethyl)amino)thieno[3,2-b]pyridin-5(4H)-one] | ≤ 50 nM | ≤ 50 nM | ≤ 50 nM
CN1CCN(c2ccc3nc(-c4c(NCc5ccccn5)c5sccc5[nH]c4=O)[nH]c3c2)CC1 [Example A53, 6-(6-(4-methylpiperazin-1-yl)-1H-benzo[d]imidazol-2-yl)-7-((pyridin-2-ylmethyl)amino)-thieno[3,2-b]pyridin-5(4H)-one] | ≤ 50 nM | ≤ 50 nM | ≤ 50 nM
CN1CCN(c2ccc3nc(-c4c(N[C@H]5CCNC[C@@H]5F)c5ccsc5[nH]c4=O)[nH]c3c2)CC1 [Example A54, 4-(((3S,4S)-3-fluoropiperidin-4-yl)amino)-5-(6-(4-methylpiperazin-1-yl)-1H-benzo[d]imidazol-2-yl)thieno[2,3-b]pyridin-6(7H)-one] | ≤ 50 nM | 50 to 500 nM | ≤ 50 nM
Cc1cc2[nH]c(-c3c(N)c4ccsc4[nH]c3=O)nc2cc1N1CCN(C)CC1 [Example A61, 4-amino-5-(6-methyl-5-(4-methylpiperazin-1-yl)-1H-benzo[d]imidazol-2-yl)thieno[2,3-b]pyridin-6(7H)-one] | ≤ 50 nM | 50 to 500 nM | ≤ 50 nM
Nc1c(-c2nc3ccc(N4CCNCC4)cc3[nH]2)c(=O)[nH]c2sccc12 [Example A64, 4-amino-5-(6-(piperazin-1-yl)-1H-benzo[d]imidazol-2-yl)thieno[2,3-b]pyridin-6(7H)-one] | ≤ 50 nM | 50 to 500 nM | ≤ 50 nM
Nc1c(-c2nc3ccc(N4CCN(C5COC5)CC4)cc3[nH]2)c(=O)[nH]c2sccc12 [Example A65, 4-amino-5-(6-(4-(oxetan-3-yl)piperazin-1-yl)-1H-benzo[d]imidazol-2-yl)thieno[2,3-b]pyridin-6(7H)-one] | ≤ 50 nM | 50 to 500 nM | ≤ 50 nM
